One test relates to A549 cells. Kind of test: Cell viability assay (Cell-Titer GLO). The format is cell-based, human. To be noted: Homo sapiens; A549; Lung cancer; 48 h; read-out: Anti-proliferative EC50. As for the experimental part:
The media was according to culture conditions of each individual cell line (mentioned above). After 12 hrs, compounds were added in a total volume of 5 μL of media (two-fold diluted) to each well with final concentrations from 5 nM to 30 μM. The measurements were conducted 48 hrs after seeding of the cells. Then, 25 μL of Cell-Titer GLO reagent (Promega) was added, and luminescence was measured on an EnSpire multimode plate reader (PerkinElmer), according to the manufacturer’s instructions. The estimated in vitro half-maximal inhibitory concentration (EC50) values were calculated using GraphPad Prism® v6.0 (San Diego, CA) software. The cell viability for A549 cells was also performed for 72- and 96-hrs by using the same experimental conditions as described above.

The target in test [1] is T1, Skp1-ΔSkp2^F−box-peptide interaction (Homo sapiens, UniProt P63208).
T1 construct: recombinantly purify intact (Skp1^WT) and truncate (ΔSkp1^1−140; lacking H8-helix) forms of Skp1; His6; made in house; host or cells: Escherichia coli BL21 (DE3)
T1 sequence (P63208 whole entry, stated change not applied, the tested form may be a part): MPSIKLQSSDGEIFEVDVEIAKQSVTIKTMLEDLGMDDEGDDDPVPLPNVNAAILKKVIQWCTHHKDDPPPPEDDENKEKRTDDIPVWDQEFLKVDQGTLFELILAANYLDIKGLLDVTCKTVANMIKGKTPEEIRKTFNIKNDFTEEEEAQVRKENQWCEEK
Kind of test: FP-based in vitro competition assay. The format is binding. To be noted: 200 μM compound, 25 μM Skp1^WT, 500 nM tracer. As for the experimental part:
FP measurements were performed using an EnVision multilabel Reader (Perkin Elmer). […] Lyophilized F-box-FAM peptide was initially dissolved in a Tris buffer (20 mM Tris-HCl pH 9.0, 150 mM NaCl, 2 mM DTT), and then a stock solution of 100 μM was prepared by subsequent dilutions in a FP buffer (20 mM Tris-HCl pH 8.0, 150 mM NaCl, 2 mM DTT, 5% (v/v) glycerol, 0.001% (v/v) Triton X-100). Specific controls groups included free F-box-FAM (tracer), bound F-box-FAM in the presence of protein (Skp1^WT or ΔSkp1^1−140), and FP buffer for every measurement, allowing accurate estimation of specific polarization.
The selected subset of compounds were initially assayed at final concentration of 200 μM. The compounds were incubated at room temperature with Skp1^WT for 1 hr, followed by the addition of the tracer. […] After incubation for another 2 hrs, FP signals was measured on an EnVision multilabel Reader. The FP response was measured in quadruplicates with controls including free F-box-FAM (tracer), bound Skp1^WT-F-box-FAM, and FP buffer. The resultant FP values were plotted as bar graphs using ORIGIN Lab software.
For gradient FP assay, protein samples were mixed with an appropriate concentrations of ligand over the range of several folds. […] The IC50 value of the compound in the gradient-concentration assay was determined with nonlinear regression and fitting using the following equation in GraphPad Prism® v6.0 (San Diego, CA). Y = Bottom + (Top – Bottom)/(1 + 10^X−LogIC50). […] In short, the relationship between the IC50 of the inhibitor and the Ki of the inhibitor depends on the KD of the fluorescent ligand and the concentration of the receptor.

Data on two compounds can be found in article PMC9249674, “A small-molecule Skp1 inhibitor elicits cell death by p53-dependent mechanism” (iScience, 2022).

In general, EC50 refers to the concentration needed to bring the measured effect to its halfway point. As to `C/C=C(/C)C(=O)O[C@H]1[C@@H]2[C@H](C)C(=O)O[C@@H]2C[C@@H](C)[C@@H]2C=CC(=O)[C@]21C` [6-OAP, Brevilin A, reference compound], in the test with A549 cells, the 50% effective concentration (EC50) worked out at 14.1 ± 2.25 µM.
A word on the inhibition: it is the drop in the measured response relative to a control, in per cent. Read a high inhibition as a strong effect. `COc1ccc(-c2cc(-c3cccc(N)c3)ccn2)cc1` [JH-3, 3-(2-(4-Methoxyphenyl)pyridin-4-yl)aniline]: the inhibition at 200 µM in test [1] is over 50%.
